Laboratory results published in patent publication US9113629B2, “4-amino-6-(4-substituted-phenyl)-picolinates and 6-amino-2-(4-substituted-phenyl)-pyrimidine-4-carboxylates and their use as herbicides” (DOW AGROSCIENCES LLC, priority 2013, dated 2015).
Where two headings read alike, the source gives them in different places.

Legend:
[1] = tested on: Key Broadleaf Weed and Crop Species; experiment: Post-emergent Test II herbicidal activity (Table 5); assay type: in vivo; conditions: post-emergence, 336 h, post-emergent, 14 days after application; for pest or weed control at 70 g/ha: 70 g ai/ha; for pest or weed control at 140 g/ha: 140 g ai/ha
Experimental: (§1) Post-emergent Test II: Seeds or nutlets of the desired test plant species were planted in Sun Gro Metro-Mix® 360 planting mixture, which typically has a pH of 6.0 to 6.8 and an organic matter content of about 30 percent, in plastic pots with a surface area of 64 square centimeters. When required to ensure good germination and healthy plants, a fungicide treatment and/or other chemical or physical treatment was applied. The plants were grown for 7-21 d in a greenhouse with an approximate 15 h photoperiod which was maintained at about 23-29° C. during the day and 22-28° C. during the night. Nutrients and water were added on a regular basis and supplemental lighting was provided with overhead metal halide 1000-Watt lamps as necessary. The plants were employed for testing when they reached the first or second true leaf stage.
(§2) A weighed amount, determined by the highest rate to be tested, of each test compound was placed in a 25 mL glass vial and was dissolved in 4 mL of a 97:3 v/v mixture of acetone and DMSO to obtain concentrated stock solutions. […] The concentrated stock solutions obtained were diluted with 20 mL of an aqueous mixture containing acetone, water, isopropyl alcohol, DMSO. Atplus 411F crop oil concentrate, and Triton® X-155 surfactant in a 48.5:39:10:1.5:1.0:0.02 v/v ratio to obtain spray solutions containing the highest application rates. Additional application rates were obtained by serial dilution of 12 mL of the high rate solution into a solution containing 2 mL of 97:3 v/v mixture of acetone and DMSO and 10 mL of an aqueous mixture containing acetone, water, isopropyl alcohol, DMSO, Atplus 411F crop oil concentrate, and Triton X-155 surfactant in a 48.5:39:10:1.5:1.0:0.02 v/v ratio to obtain ½×, ¼×, ⅛× and 1/16× rates of the high rate. Compound requirements are based upon a 12 mL application volume at a rate of 187 liters per hectare (L/ha). Formulated compounds were applied to the plant material with an overhead Mandel track sprayer equipped with 8002E nozzles calibrated to deliver 187 L/ha over an application area of 0.503 square meters at a spray height of 18 inches (43 cm) above the average plant canopy height. Control plants were sprayed in the same manner with the solvent blank.
(§3) The treated plants and control plants were placed in a greenhouse as described above and watered by subirrigation to prevent wash-off of the test compounds. After 14 d, the condition of the test plants as compared with that of the untreated plants was determined visually and scored on a scale of 0 to 100 percent where 0 corresponds to no injury and 100 corresponds to complete kill.

[2] = tested on: Key Grass and Sedge Weeds as well as Grass Crops; experiment: Post-emergent Test II herbicidal activity (Table 6); assay type: in vivo; conditions: post-emergence, 336 h; for pest or weed control at 70 g/ha: application rate 70 g ai/ha; for pest or weed control at 140 g/ha: application rate 140 g ai/ha
Experimental: as §1, §2, §3

[3] = ABUTH: velvetleaf (Abutilon theophrasti), read-out: Visual Growth Reduction (%) 14 Days After Application ABUTH
[4] = BRSNN: oilseed-rape, canola (Brassica napus), read-out: Visual Growth Reduction (%) 14 Days After Application BRSNN
[5] = CHEAL: lambsquarters (Chenopodium album), read-out: Visual Growth Reduction (%) 14 Days After Application CHEAL
[6] = EPHHL: wild poinsettia (Euphorbia heterophylla), read-out: Visual Growth Reduction (%) 14 Days After Application EPHHL
[7] = HELAN: sunflower (Helianthus annuus), read-out: Visual Growth Reduction (%) 14 Days After Application HELAN
[8] = VIOTR: wild pansy (Viola tricolor), read-out: Visual Growth Reduction (%) 14 Days After Application VIOTR
[9] = CYPES: yellow nutsedge (Cyperus esculentus), read-out: Visual Growth Reduction (%) 14 Days After Application, CYPES
[10] = DIGSA: crabgrass (Digitaria sanguinalis), read-out: Visual Growth Reduction (%) 14 Days After Application, DIGSA
[11] = ECHCG: barnyardgrass (Echinochloa crus-galli), read-out: Visual Growth Reduction (%) 14 Days After Application, ECHCG
[12] = ORYSA: rice (Oryza sativa), read-out: Visual Growth Reduction (%) 14 Days After Application, ORYSA
[13] = SETFA: giant foxtail (Setaria faberi), read-out: Visual Growth Reduction (%) 14 Days After Application, SETFA
[14] = SORVU: grain sorghum (Sorghum vulgare), read-out: Visual Growth Reduction (%) 14 Days After Application, SORVU
[15] = TRZSS (wheat, Triticum aestivum), read-out: Visual Growth Reduction (%) 14 Days After Application, TRZSS
[16] = ZEAMX: maize, corn (Zea mays), read-out: Visual Growth Reduction (%) 14 Days After Application, ZEAMX
[17] = AMARE: redroot pigweed (Amaranthus retroflexus), read-out: Visual Growth Reduction (%) 14 Days After Application AMARE
[18] = Triticum aestivum, TRZSS (wheat), read-out: Visual Growth Reduction (%) 14 Days After Application, TRZSS

Row | melting point [°C] | Structure (SMILES) | pest or weed control at 140 g/ha [1, 3] [%] | pest or weed control at 140 g/ha [1, 4] [%] | pest or weed control at 140 g/ha [1, 5] [%] | pest or weed control at 140 g/ha [1, 6] [%] | pest or weed control at 140 g/ha [1, 7] [%] | pest or weed control at 140 g/ha [1, 8] [%] | pest or weed control at 140 g/ha [2, 9] [%] | pest or weed control at 140 g/ha [2, 10] [%] | pest or weed control at 140 g/ha [2, 11] [%] | pest or weed control at 140 g/ha [2, 12] [%] | pest or weed control at 140 g/ha [2, 13] [%] | pest or weed control at 140 g/ha [2, 14] [%] | pest or weed control at 140 g/ha [2, 16] [%] | pest or weed control at 140 g/ha [1, 17] [%] | pest or weed control at 140 g/ha [2, 18] [%] | further results
1 | 171 to 172 | Cc1c(-c2ccc(I)c(F)c2)nc(C(=O)O)c(Cl)c1N [Compound 87, 4-Amino-3-chloro-6-(3-fluoro-4-iodophenyl)-5-methylpicolinic acid] | 85 to 94 | 95 to 100 | 85 to 94 | 0 to 29 | 85 to 94 | 85 to 94 | 45 to 59 | 60 to 74 | 75 to 84 | 0 to 29 | 75 to 84 | 60 to 74 | 60 to 74 |  |  | pest or weed control at 70 g/ha [1, 3]: 85 to 94%; pest or weed control at 70 g/ha [1, 4]: 95 to 100%; pest or weed control at 70 g/ha [1, 5]: 85 to 94%; pest or weed control at 70 g/ha [1, 6]: 0 to 29%; pest or weed control at 70 g/ha [1, 7]: 85 to 94%; pest or weed control at 70 g/ha [1, 8]: 60 to 74%; pest or weed control at 70 g/ha [2, 9]: 0 to 29%; pest or weed control at 70 g/ha [2, 10]: 60 to 74%; pest or weed control at 70 g/ha [2, 11]: 75 to 84%; pest or weed control at 70 g/ha [2, 12]: 0 to 29%; pest or weed control at 70 g/ha [2, 13]: 60 to 74%; pest or weed control at 70 g/ha [2, 14]: 60 to 74%; pest or weed control at 70 g/ha [2, 15]: 60 to 74%; pest or weed control at 140 g/ha [2, 15]: 60 to 74%; pest or weed control at 70 g/ha [2, 16]: 60 to 74%
2 | 171 to 172.1 | COc1c(N)nc(-c2ccc(OC(F)(F)F)cc2)nc1C(=O)O [Compound 102] | 0 to 29 | 0 to 29 | 0 to 29 | 95 to 100 | 60 to 74 | 0 to 29 | 0 to 29 | 0 to 29 | 0 to 29 | 0 to 29 | 0 to 29 | 0 to 29 | 0 to 29 | 0 to 29 | 0 to 29 | 
3 | 102.4 to 103.6 | COC(=O)c1nc(-c2ccc(OC(F)F)cc2)c(Cl)c(N)c1Cl [Compound 15] | 85 to 94 | 0 to 29 | 30 to 44 | 0 to 29 | 95 to 100 | 0 to 29 | 0 to 29 | 0 to 29 | 0 to 29 | 0 to 29 | 0 to 29 | 0 to 29 | 0 to 29 | 0 to 29 | 0 to 29 | 
4 | 148.2 to 150.9 | C#Cc1ccc(-c2nc(N)c(OC)c(C(=O)OC)n2)cc1 [Compound 166] | 0 to 29 | 0 to 29 | 60 to 74 | 95 to 100 | 85 to 94 | 0 to 29 | 45 to 59 | 0 to 29 | 0 to 29 | 0 to 29 | 0 to 29 | 0 to 29 | 45 to 59 | 95 to 100 | 0 to 29 | 
5 | 185.2 to 186.1 | COc1c(N)nc(-c2ccc(C#N)cc2)nc1C(=O)O [Compound 25] | 0 to 29 | 0 to 29 | 0 to 29 | 0 to 29 | 0 to 29 | 0 to 29 | 0 to 29 | 0 to 29 | 0 to 29 | 0 to 29 | 0 to 29 | 0 to 29 | 0 to 29 | 0 to 29 | 0 to 29 | 
